Patent US8097620B2, “Diazaquinolones that inhibit prolyl hydroxylase activity” (Amgen Inc., priority 2007, dated 2012)

Biological target: HIF PHD2 (Homo sapiens, UniProt Q9GZT9)
Assay: PHD2 inhibition assay (TR-FRET, VCB-Eu detection of hydroxylated P564-HIF1α peptide)
Format: biochemical
Details: 2 nM PHD2, 100 nM P564-HIF1α peptide, 0.25 μM 2-oxoglutarate, 100 μM FeCl2, 2 mM ascorbic acid, pH 6
Description: Inhibition of HIF PHD2 activity was quantified utilizing the TR-FRET technology. HIF PHD2 catalyzes a hydroxyl modification on the proline residue of the P564-HIF1α peptide substrate (Biotin-[…] (SEQ ID NO: 7)) resulting in recognition and binding of the europylated Von Hippel-Lindau protein (pVHL), elongin B and elongin C heterotrimeric (VCB-Eu) complex.
The PHD2 inhibition assay was executed by addition of freshly dissolved FeCl2 to 178.57 μM (100 μM final concentration) in PHD2 Reaction Buffer containing 30 mM MES, pH 6, 10 mM NaCl, 0.25% Brij-35, 0.01% BSA, and 1% DMSO. 28 μL of the iron solution and 2 μL of inhibitor compounds serially diluted in 100% DMSO (5% DMSO final) were added to black polypropylene 96-well microtiter plates. To that, 10 μL of 10 nM PHD2 (2 nM final) was added to all wells of the plate except for the 8 wells of column 12 (LO control), and allowed to incubate at room temperature on the shaker for one hour. Column 6 was the HI control containing PHD2 enzyme and 5% DMSO vehicle, but no inhibitor compound. To initiate the PHD2 enzymatic reaction, 10 μL of a solution containing 500 nM P564-HIF1α peptide (100 nM final), 10 mM ascorbic acid (2 mM final), and 1.25 μM 2-oxoglutarate (α-ketoglutarate; 0.25 μM final) in PHD2 Reaction Buffer was added to all wells of the plate and allowed to incubate on the shaker at room temperature for one hour.
The reaction was terminated by addition of 25 μL TR-FRET Buffer (50 mM TRIS-HCl, pH 9, 100 mM NaCl, 0.05% BSA, and 0.5% Tween-20) containing 150 mM succinate (product inhibitor; 50 mM final), 75 nM streptavidin-APC (25 nM final), and 7.5 nM VCB-Eu (2.5 nM final). The TR-FRET detection reagents were placed on a shaker for 1 hour to reach binding equilibrium before reading on the Discovery platform (PerkinElmer). Europium is excited at 315 nm and phosphoresces at 615 nm with a large Stoke's shift. APC, in turn, emits at 655 nm upon excitation at 615 nm. The TR-FRET signal is measured as the ratio of the APC 655 nm signal divided by the internal europium reference 615 nm emission signal.
The POC (percentage of control) was determined by comparing the signal from hydroxylated peptide substrate in the enzyme reaction containing inhibitor compound with that from PHD2 enzyme with DMSO vehicle alone (HI control), and no enzyme (LO control). POC was calculated using the formula: % control (POC)=(cpd−average LO)/(average HI−average LO)*100. Data (consisting of POC and inhibitor concentration in μM) was fitted to a 4-parameter equation (y=A+((B−A)/(1+((x/C)^D))), where A is the minimum y (POC) value, B is the maximum y (POC), C is the x (cpd concentration) at the point of inflection and D is the slope factor) using a Levenburg-Marquardt non-linear regression algorithm.

Sequence of HIF PHD2 (Q9GZT9 whole entry): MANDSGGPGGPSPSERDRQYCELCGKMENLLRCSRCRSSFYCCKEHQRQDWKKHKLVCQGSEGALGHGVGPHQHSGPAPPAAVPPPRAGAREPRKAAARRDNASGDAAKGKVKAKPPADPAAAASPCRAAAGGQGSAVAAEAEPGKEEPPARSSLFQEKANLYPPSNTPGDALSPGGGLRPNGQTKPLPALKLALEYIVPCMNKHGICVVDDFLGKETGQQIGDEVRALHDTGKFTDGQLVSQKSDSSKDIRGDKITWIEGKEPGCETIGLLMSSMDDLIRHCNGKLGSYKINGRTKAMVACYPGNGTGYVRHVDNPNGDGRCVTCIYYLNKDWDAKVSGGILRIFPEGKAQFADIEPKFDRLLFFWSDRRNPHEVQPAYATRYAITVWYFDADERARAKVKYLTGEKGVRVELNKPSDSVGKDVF

SMILES	IC50
Cn1c(=O)c(C(=O)NCC(=O)O)c(O)c2cc(-c3cccs3)nnc21 [Example 3, 2-(5-hydroxy-8-methyl-7-oxo-3-(thiophen-2-yl)-7,8-dihydropyrido[2,3-c]pyridazine-6-carboxamido)acetic acid]	22 nM
Cn1c(=O)c(C(=O)NCC(=O)O)c(O)c2cnc(-c3ccccc3)nc21 [Example 25, 2-(5-hydroxy-8-methyl-7-oxo-2-phenyl-7,8-dihydropyrido[2,3-d]pyrimidine-6-carboxamido)acetic acid]	4.3 nM
Cn1c(=O)c(C(=O)NCC(=O)O)c(O)c2cnc(-c3ccsc3)nc21 [Example 54, 2-(5-hydroxy-8-methyl-7-oxo-2-(thiophen-3-yl)-7,8-dihydropyrido[2,3-d]pyrimidine-6-carboxamido)acetic acid]	4 nM
